In ChEMBL document CHEMBL1201862, “PubChem BioAssay data set” (2004):
pEC50: −log10 of the molar value. Values belong to the molecule of their own block, whether it stands above or below them. The source made the active and inactive calls.

Experiments:
[1] = target: Envelope glycoprotein gp160 (Human immunodeficiency virus 1, UniProt Q6QLK5); test: inhibitors of HIV fusion peptide binding, primary screen, biochemical, uHTS, fluorescence dequenching (AID 1986)
[2] = target: Induced myeloid leukemia cell differentiation protein Mcl-1 (Homo sapiens, UniProt Q07820); assay type: functional
[3] = THP-1 cell cytotoxicity, dose response, cytotoxicity control for Vif-APOBEC3G degradation inhibitor project, THP-1 cells (AID 1117359); assay type: functional; conditions: Human immunodeficiency virus 1, THP-1
[4] = nmpC-GFP reporter inhibition in S. Typhimurium, dose response, counter-screen for PhoP regulon inhibitor project, purified and synthesized compounds, set 2 (AID 2834); assay type: functional
[5] = target: Disintegrin and metalloproteinase domain-containing protein 17 (Homo sapiens, UniProt P78536); test: exosite inhibitors of ADAM17, dose response, biochemical (AID 743260)
[6] = Shn3 3'UTR reporter inhibitors, dose response, cell-based, Clone20 osteoblasts, firefly luciferase, cherry-picked (AID 624132); assay type: functional;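 note: firefly luciferase luminescence from reporter carrying the Shn3 3'UTR in osteoblasts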
[7] = control 3'UTR Renilla luciferase suppression, dose response, counter-screen for Shn3 inhibitor project, cell-based, Clone20-Shn3RL, cherry-picked (AID 624133); assay type: functional
[8] = HepG2 cell cytotoxicity, dose response, cytotoxicity control for Shn3 inhibitor project, CellTiter-Glo, cherry-picked (AID 624134); assay type: functional, cell-based
[9] = ADAM10 protease inhibitors, dose response, selectivity assay for ADAM17 exosite inhibitor project, biochemical, FRET peptide substrate, recombinant human ADAM10 (AID 743259);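 note: ADAM10 enzyme cleaving a FRET peptide substrate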
[10] = target: G-protein coupled receptor 55 (Homo sapiens, UniProt Q9Y2T6); test: GPR55 agonists via beta-arrestin recruitment, primary screen, imaging, U2OS cells, beta-arrestin-GFP redistribution (AID 1961); assay type: functional
[11] = target: T1, Kappa-type opioid receptor (Homo sapiens, UniProt P41145); assay type: functional
Mu-type opioid receptor [12] = target: T2, Mu-type opioid receptor (Homo sapiens, UniProt P35372); test: HTS Image-Based Screen for Agonists of the MOR Receptor. [Related pubchem assays (depositor defined):AID1777, AID1785, AID1786, AID2133]; assay type: functional
[13] = target: T3, Delta-type opioid receptor (Homo sapiens, UniProt P41143); test: HTS Image-Based Screen for Antagonists of the DOR Receptor. [Related pubchem assays (depositor defined):AID1777, AID1785, AID1786, AID2133]; assay type: functional
[14] = target: T1, Kappa-type opioid receptor; assay type: functional; remark: listed apart in the source
[15] = target: T3, Delta-type opioid receptor; test: HTS Image-Based Screen for Agonists of the DOR Receptor. [Related pubchem assays (depositor defined):AID1777, AID1786, AID2133]; assay type: functional
[16] = target: Eukaryotic translation initiation factor 4E (Mus musculus, UniProt P63073); test: eIF4E–eIF4G protein interaction inhibitors, dose response, biochemical, TR-FRET (AID 855); assay type: functional;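 note: potency for disrupting eIF4E binding to eIF4GI seen as loss of FRET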
[17] = target: T3, Delta-type opioid receptor; test: SAR Analysis of Antagonists of the DOR Receptor using an Image-Based Assay - Set 3. [Related pubchem assays (depositor defined):AID1777, AID1785]; assay type: functional
[18] = target: T1, Kappa-type opioid receptor; test: SAR analysis of small molecule antagonists of the kappa opioid receptor via a luminescent beta-arrestin assay - Set 3. [Related pubchem assays (depositor defined):AID1777, AID1778, AID1785, AID1786, AID1966, AID2133, AID2136, AID2285, AID2495]; assay type: functional
[19] = target: T1, Kappa-type opioid receptor; test: SAR analysis of Antagonists of the Kappa Opioid Receptor (KOR) using an Image-Based Assay - Set 4. [Related pubchem assays (depositor defined):AID1777, AID1785]; assay type: functional
Mu-type opioid receptor [20] = target: T2, Mu-type opioid receptor; test: SAR Analysis of Antagonists of the MOR Receptor using an Image-Based Assay - Set 3. [Related pubchem assays (depositor defined):AID1777, AID1785, AID1786, AID1966, AID2133, AID2136, AID2284, AID2285, AID2420]; assay type: functional

T3 sequence (P41143 whole entry): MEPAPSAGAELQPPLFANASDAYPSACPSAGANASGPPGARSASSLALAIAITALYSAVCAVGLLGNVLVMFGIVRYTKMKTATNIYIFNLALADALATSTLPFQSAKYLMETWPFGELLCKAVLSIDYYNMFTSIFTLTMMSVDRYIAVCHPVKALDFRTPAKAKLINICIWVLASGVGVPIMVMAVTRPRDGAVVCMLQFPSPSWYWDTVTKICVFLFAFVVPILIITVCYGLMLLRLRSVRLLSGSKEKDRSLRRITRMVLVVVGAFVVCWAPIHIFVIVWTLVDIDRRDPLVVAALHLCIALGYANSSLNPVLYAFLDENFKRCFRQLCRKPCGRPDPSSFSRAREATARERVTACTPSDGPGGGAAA
T1 sequence (P41145 whole entry): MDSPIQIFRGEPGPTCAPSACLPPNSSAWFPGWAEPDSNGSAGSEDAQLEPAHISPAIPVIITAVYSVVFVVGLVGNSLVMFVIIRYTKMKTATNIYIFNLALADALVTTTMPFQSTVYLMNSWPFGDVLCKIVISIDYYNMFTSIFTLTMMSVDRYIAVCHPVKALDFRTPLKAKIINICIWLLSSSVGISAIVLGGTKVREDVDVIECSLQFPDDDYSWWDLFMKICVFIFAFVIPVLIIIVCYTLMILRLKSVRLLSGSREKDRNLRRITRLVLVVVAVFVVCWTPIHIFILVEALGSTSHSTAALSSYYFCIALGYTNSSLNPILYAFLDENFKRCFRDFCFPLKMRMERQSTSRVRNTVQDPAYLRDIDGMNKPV
T2 sequence (P35372 whole entry): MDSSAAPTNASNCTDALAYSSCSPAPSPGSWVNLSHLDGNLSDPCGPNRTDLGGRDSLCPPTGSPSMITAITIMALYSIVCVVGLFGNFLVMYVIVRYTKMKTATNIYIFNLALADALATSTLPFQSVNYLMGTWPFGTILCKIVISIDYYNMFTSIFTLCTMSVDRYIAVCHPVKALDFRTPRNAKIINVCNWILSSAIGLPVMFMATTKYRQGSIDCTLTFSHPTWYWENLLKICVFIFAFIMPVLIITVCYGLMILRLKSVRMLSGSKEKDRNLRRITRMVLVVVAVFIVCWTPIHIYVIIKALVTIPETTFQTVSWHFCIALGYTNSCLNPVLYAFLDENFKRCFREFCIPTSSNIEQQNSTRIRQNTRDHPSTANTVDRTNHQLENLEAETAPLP
G-protein coupled receptor 55, sequence (Q9Y2T6 whole entry): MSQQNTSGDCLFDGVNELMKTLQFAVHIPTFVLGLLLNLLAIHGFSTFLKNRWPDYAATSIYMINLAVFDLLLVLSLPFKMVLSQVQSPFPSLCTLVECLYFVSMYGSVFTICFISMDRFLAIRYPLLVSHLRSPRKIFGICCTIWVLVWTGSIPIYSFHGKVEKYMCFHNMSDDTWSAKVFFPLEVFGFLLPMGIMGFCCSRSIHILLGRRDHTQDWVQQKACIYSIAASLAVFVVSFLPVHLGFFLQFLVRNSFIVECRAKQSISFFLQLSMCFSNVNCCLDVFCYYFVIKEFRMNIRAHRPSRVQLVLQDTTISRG
Envelope glycoprotein gp160, sequence (Q6QLK5 whole entry, the tested form may be a part): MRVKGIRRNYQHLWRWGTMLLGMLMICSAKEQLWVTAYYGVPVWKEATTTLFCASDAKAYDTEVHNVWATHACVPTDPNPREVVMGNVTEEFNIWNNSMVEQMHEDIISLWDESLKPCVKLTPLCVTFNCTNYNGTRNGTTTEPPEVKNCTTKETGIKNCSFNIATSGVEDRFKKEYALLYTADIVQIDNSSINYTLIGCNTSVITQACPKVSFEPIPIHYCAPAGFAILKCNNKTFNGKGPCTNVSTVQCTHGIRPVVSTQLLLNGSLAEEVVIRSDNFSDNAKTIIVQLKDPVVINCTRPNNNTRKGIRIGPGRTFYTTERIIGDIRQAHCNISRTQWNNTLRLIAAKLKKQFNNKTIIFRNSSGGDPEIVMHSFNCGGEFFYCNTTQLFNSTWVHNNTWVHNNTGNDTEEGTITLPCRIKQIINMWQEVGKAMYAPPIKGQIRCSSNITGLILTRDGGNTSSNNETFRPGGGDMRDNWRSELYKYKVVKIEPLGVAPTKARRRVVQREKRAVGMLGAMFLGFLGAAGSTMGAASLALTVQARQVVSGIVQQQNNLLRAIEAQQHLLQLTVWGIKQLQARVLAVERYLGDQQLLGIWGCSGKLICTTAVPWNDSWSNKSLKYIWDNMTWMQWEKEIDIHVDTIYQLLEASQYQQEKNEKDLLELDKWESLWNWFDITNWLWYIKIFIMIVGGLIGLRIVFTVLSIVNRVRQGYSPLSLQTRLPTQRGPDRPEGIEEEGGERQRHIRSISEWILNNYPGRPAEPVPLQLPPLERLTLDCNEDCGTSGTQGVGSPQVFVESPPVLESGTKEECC
Induced myeloid leukemia cell differentiation protein Mcl-1, sequence (Q07820 whole entry): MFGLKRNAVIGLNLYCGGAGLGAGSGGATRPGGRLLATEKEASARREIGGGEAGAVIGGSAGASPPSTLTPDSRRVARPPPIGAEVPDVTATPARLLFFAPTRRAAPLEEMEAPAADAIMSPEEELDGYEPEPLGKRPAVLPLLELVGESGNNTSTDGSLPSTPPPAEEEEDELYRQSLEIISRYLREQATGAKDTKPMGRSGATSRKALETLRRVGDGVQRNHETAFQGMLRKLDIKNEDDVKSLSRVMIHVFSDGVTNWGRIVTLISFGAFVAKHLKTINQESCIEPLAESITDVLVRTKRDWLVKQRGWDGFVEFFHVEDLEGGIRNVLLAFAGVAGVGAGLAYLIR
Disintegrin and metalloproteinase domain-containing protein 17, sequence (P78536 whole entry, the tested form may be a part): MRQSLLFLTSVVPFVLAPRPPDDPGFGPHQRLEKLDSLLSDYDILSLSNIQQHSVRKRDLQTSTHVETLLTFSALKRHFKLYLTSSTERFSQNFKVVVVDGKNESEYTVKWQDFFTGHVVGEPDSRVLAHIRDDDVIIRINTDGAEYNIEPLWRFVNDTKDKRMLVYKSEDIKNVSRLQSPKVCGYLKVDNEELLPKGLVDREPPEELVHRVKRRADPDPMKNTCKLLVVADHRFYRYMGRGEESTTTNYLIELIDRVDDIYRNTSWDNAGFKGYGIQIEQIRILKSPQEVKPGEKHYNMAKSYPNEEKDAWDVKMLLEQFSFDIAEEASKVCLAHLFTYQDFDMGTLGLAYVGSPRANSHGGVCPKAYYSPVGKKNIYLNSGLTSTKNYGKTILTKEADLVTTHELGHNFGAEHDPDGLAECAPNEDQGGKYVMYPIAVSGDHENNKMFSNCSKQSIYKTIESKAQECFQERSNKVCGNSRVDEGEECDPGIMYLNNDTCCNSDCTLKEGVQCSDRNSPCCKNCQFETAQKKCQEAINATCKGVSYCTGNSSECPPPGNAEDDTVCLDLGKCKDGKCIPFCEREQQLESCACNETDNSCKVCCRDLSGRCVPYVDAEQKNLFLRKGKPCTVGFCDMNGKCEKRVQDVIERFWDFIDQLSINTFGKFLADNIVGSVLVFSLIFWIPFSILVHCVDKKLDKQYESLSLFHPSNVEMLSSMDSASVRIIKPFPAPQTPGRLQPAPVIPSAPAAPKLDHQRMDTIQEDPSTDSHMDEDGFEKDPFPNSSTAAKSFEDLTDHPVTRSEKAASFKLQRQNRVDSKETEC
Eukaryotic translation initiation factor 4E, sequence (P63073 whole entry): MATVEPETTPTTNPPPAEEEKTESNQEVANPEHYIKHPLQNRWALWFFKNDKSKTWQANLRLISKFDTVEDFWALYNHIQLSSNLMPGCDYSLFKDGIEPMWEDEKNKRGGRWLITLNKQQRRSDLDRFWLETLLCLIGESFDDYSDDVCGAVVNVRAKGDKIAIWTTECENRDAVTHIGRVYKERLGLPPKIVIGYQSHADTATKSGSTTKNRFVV

SMILES: O=C(O)C[C@@H]1C(=O)O[C@@H]2C(COC(=O)c3cc(O)c(O)c(O)c3)O[C@@H](OC(=O)c3cc(O)c(O)c(O)c3)[C@@H](OC(=O)c3cc(O)c(O)c4c3[C@H]1[C@H](O)C(=O)O4)[C@H]2OC(=O)c1cc(O)c(O)c(O)c1 (stereo not given in full)
IC50 [1]: 11.2 µM (active)
IC50 [2]: 1.52 µM (active)
CC50 [3]: > 40 µM (active)

SMILES: S=C(NCc1ccc(Cl)cc1)Nc1ccncc1
IC50 [4]: > 125 µM (active)
IC50 [5]: > 69.6 µM (inactive)
AC50 [6]: 1.5 µM (active)
AC50 [7]: > 70 µM (inactive)
AC50 [8]: 22.1 µM (active)
IC50 [9]: > 69.6 µM (inactive)

SMILES: COc1ccc(-c2cc(C(F)(F)F)n3nc(C(=O)NCc4ccco4)cc3n2)cc1
EC50 [10]: > 32 µM (inactive)

Results, then the molecule that gave them:

pEC50 [11]: 5.37
EC50 (Mu-type opioid receptor [12]): > 32 µM (inactive)
IC50 [13]: > 32 µM (inactive)
pEC50 [14]: 4.98
EC50 [15]: > 32 µM (inactive)
IC50 [16]: > 64 µM (inactive)
SMILES: Cc1ccc(C)c(N2CCN(C(=O)C(Cc3ccccc3)n3cccc3)CC2)c1 (stereo not given)

IC50 [17]: > 32 µM (inactive)
IC50 [18]: 4.86 µM (active)
IC50 [19]: 12.1 µM (inactive)
IC50 (Mu-type opioid receptor [20]): 2.03 µM (active)
SMILES: CCN(CCNC(=O)c1ccc(CNS(=O)(=O)c2ccccc2)cc1)Cc1ccccc1
